Here are results for ten compounds from ChEMBL document CHEMBL1201862, “PubChem BioAssay data set” (2004).

Among the test systems are BT-549; COLO 205; HOP-62; HOP-92; HT-29; MCF7; MDA-MB-231; Malme-3M; NCI-H23; NCI-H522; NCI/ADR-RES; OVCAR-3; OVCAR-5; PC-3; RXF 393; SF-539; SN12C; SW-620; TK-10; UO-31.
What all share (assay): growth of human tumour cells (NCI), 48 h

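1) Cells in 96-well plates. 2) Compound, 48 h, 5 concentrations. 3) Linear interpolation between surrounding doses. 4) Unreached endpoint = highest concentration. Here, GI50 denotes the concentration required for 50% inhibition of growth.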 Activity calls are given as the source filed them. No stated cut-off is given here; in the data, active = GI50 up to about 1.1 µM and inactive = higher. Bounds are passed on as bounds.

Turning to `CC1=NN(C(=O)CC(=O)Nc2ccc(Cl)cc2)C(=O)C1/N=N\c1ccc(S(=O)(=O)c2ccc(/N=N/C3C(=O)N(C(=O)CC(=O)Nc4ccc(Cl)cc4)N=C3C)cc2)cc1` (centres undefined), the GI50 in the assay on BT-549 was > 100 µM (inactive); in the assay on COLO 205, > 100 µM (inactive); with HOP-62, 54.5 µM (inactive); with HOP-92, > 100 µM (inactive); in the assay on HT-29 it was > 100 µM (inactive); in the assay with MCF7, > 100 µM (inactive). Besides, the GI50 was 51.9 µM (inactive) in the assay with MDA-MB-231; > 100 µM (inactive) in the assay with Malme-3M; > 100 µM (inactive) in the assay with NCI-H23; > 100 µM (inactive) with NCI-H522; > 100 µM (inactive) in the assay with NCI/ADR-RES; > 100 µM (inactive) with OVCAR-3. The GI50 was 42.3 µM (inactive) with OVCAR-5; > 100 µM (inactive) in the assay with PC-3; 41.5 µM (inactive) in the assay on RXF 393; > 100 µM (inactive) in the assay on SF-539; > 100 µM (inactive) with SN12C; > 100 µM (inactive) in the assay with SW-620. The GI50 in the assay with TK-10 is 35.7 µM (inactive); with UO-31, > 100 µM (inactive).
Consider `CN1c2ccccc2S(=O)(=O)n2c(COc3ccccc3)nnc21`, for which the GI50 was 64.4 µM (inactive) in the assay with BT-549; > 100 µM (inactive) with COLO 205; 35.4 µM (inactive) in the assay on HOP-62; 56.5 µM (inactive) in the assay with HOP-92; > 100 µM (inactive) in the assay with HT-29; > 100 µM (inactive) with MCF7. Besides, the GI50 in the assay with MDA-MB-231 was > 100 µM (inactive); in the assay with NCI-H23 it was > 100 µM (inactive); with NCI-H522, 56.8 µM (inactive); in the assay with NCI/ADR-RES, > 100 µM (inactive); in the assay on OVCAR-3, > 100 µM (inactive); in the assay with OVCAR-5, > 100 µM (inactive). The GI50 with PC-3 is > 100 µM (inactive); in the assay on RXF 393, > 100 µM (inactive); with SF-539, 62.8 µM (inactive); in the assay with SN12C it was > 100 µM (inactive); in the assay on SW-620 it was > 100 µM (inactive); with TK-10, > 100 µM (inactive). Further, the GI50 in the assay on UO-31 was > 100 µM (inactive).
As for `c1ccc(-c2cc(-c3cc(-c4ccccn4)[nH]n3)n[nH]2)nc1`, the GI50 with BT-549 was > 100 µM (inactive); with COLO 205, > 100 µM (inactive); with HOP-62 it was 92.9 µM (inactive); in the assay with HOP-92, 77.8 µM (inactive); with HT-29, 38.8 µM (inactive); with MCF7, > 100 µM (inactive). Also, the GI50 in the assay on MDA-MB-231 was > 100 µM (inactive); with Malme-3M, > 100 µM (inactive); in the assay with NCI-H23, 95.5 µM (inactive); in the assay on NCI-H522, > 100 µM (inactive); in the assay on NCI/ADR-RES, 44.5 µM (inactive); in the assay on OVCAR-3, 74.1 µM (inactive). The GI50 in the assay with OVCAR-5 is > 100 µM (inactive); in the assay with PC-3 it was > 100 µM (inactive); with RXF 393, > 100 µM (inactive); with SF-539, > 100 µM (inactive); in the assay with SN12C it was 27.6 µM (inactive); in the assay on SW-620, > 100 µM (inactive). Also, the GI50 in the assay on UO-31 is 22.6 µM (inactive).
As to `N/C(=N\Nc1ccc(S(N)(=O)=O)cc1)c1cnccn1`, the GI50 with BT-549, with COLO 205, in the assay with HOP-62, in the assay on HOP-92, in the assay with HT-29 and in the assay on MCF7 was > 100 µM (inactive) each time. Further, the GI50 in the assay on MDA-MB-231, with Malme-3M, in the assay with NCI-H23, in the assay on NCI-H522, in the assay with NCI/ADR-RES and in the assay with OVCAR-3 was > 100 µM (inactive) each time. Also, the GI50 in the assay with OVCAR-5, in the assay with PC-3, with RXF 393, in the assay on SN12C, with SW-620 and in the assay on TK-10 was > 100 µM (inactive) throughout. For the same compound, the GI50 in the assay on UO-31 is > 100 µM (inactive).
For `Cc1cccc2nc(-c3ccccc3)cc(=O)n12`, the GI50 was 85.5 µM (inactive) in the assay on BT-549; > 100 µM (inactive) in the assay with COLO 205; > 100 µM (inactive) in the assay on HOP-62; 61.7 µM (inactive) with HOP-92; > 100 µM (inactive) in the assay with HT-29; 50.2 µM (inactive) in the assay on MCF7. For the same compound, the GI50 was > 100 µM (inactive) with MDA-MB-231; > 100 µM (inactive) with Malme-3M; > 100 µM (inactive) with NCI-H23; 58.9 µM (inactive) with NCI-H522; 44.9 µM (inactive) in the assay on NCI/ADR-RES; > 100 µM (inactive) in the assay on OVCAR-3. The GI50 was > 100 µM (inactive) in the assay on OVCAR-5; 43.7 µM (inactive) in the assay with PC-3; 51.8 µM (inactive) in the assay with RXF 393; > 100 µM (inactive) in the assay with SF-539; 69.2 µM (inactive) with SN12C; > 100 µM (inactive) with SW-620. Besides, in the assay on TK-10, the GI50 was 68.7 µM (inactive).
On to `O=C(O)c1cc2ccccc2c(/N=N/c2ccc(S(=O)(=O)Nc3ncccn3)cc2)c1O`, for which the GI50 in the assay with BT-549, in the assay with COLO 205, in the assay on HOP-62, in the assay with HOP-92, in the assay with HT-29 and in the assay on MCF7 was > 100 µM (inactive) each time. Besides, the GI50 with MDA-MB-231, in the assay on Malme-3M, in the assay on NCI-H522, in the assay with NCI/ADR-RES, in the assay on OVCAR-3 and with OVCAR-5 was > 100 µM (inactive) throughout. The GI50 in the assay with PC-3, in the assay with RXF 393, in the assay with SF-539, in the assay on SW-620, with TK-10 and with UO-31 was > 100 µM (inactive) in each case.
Consider `CC1=CC(C)(C)NN1C1=NS(=O)(=O)c2ccccc2N1C`, for which the GI50 in the assay on BT-549, in the assay with COLO 205, with HOP-62, in the assay with HOP-92, in the assay with HT-29 and with MCF7 was > 100 µM (inactive) in each case. The GI50 with MDA-MB-231, with NCI-H23, in the assay with NCI-H522, in the assay on NCI/ADR-RES, in the assay with OVCAR-3 and in the assay on OVCAR-5 was > 100 µM (inactive) each time. For the same compound, the GI50 with PC-3, in the assay with RXF 393, in the assay with SF-539, in the assay with SN12C, with SW-620 and in the assay on TK-10 was > 100 µM (inactive) each time. Moreover, the GI50 in the assay with UO-31 was 78.3 µM (inactive).
For `Cc1ccc(C2=CC(=O)/C(=C\C(=O)c3ccc(Cl)cc3)O2)cc1`, the GI50 was 1.86 µM (inactive) with BT-549; 13.3 µM (inactive) with COLO 205; 97.9 µM (inactive) with HOP-62; 14.1 µM (inactive) with HOP-92; 4.14 µM (inactive) with HT-29; 10.6 µM (inactive) with MCF7. The GI50 in the assay with MDA-MB-231 was 12.1 µM (inactive); with Malme-3M it was 17.2 µM (inactive); in the assay with NCI-H23, 24.2 µM (inactive); in the assay with NCI-H522, 1.97 µM (inactive); in the assay on NCI/ADR-RES it was 15.5 µM (inactive); in the assay with OVCAR-3 it was 4.7 µM (inactive). Further, the GI50 was 21.1 µM (inactive) in the assay on OVCAR-5; 2.43 µM (inactive) in the assay on PC-3; 4.6 µM (inactive) in the assay with RXF 393; 21.2 µM (inactive) in the assay with SF-539; 2.39 µM (inactive) with SW-620; 3.23 µM (inactive) in the assay on TK-10. In the assay with UO-31, the GI50 is 9.51 µM (inactive).
In the case of `O=c1oc2cc(O)ccc2cc1-c1nc2ccccc2s1`, the GI50 in the assay on BT-549 was 16.9 µM (inactive); in the assay on COLO 205, 0.109 µM (active); in the assay with HOP-62, 20.9 µM (inactive); with HOP-92 it was 27.7 µM (inactive); in the assay on HT-29 it was 29 µM (inactive); in the assay on MCF7, 23.9 µM (inactive). The GI50 in the assay with MDA-MB-231 is 23.7 µM (inactive); in the assay on NCI-H23, 21.1 µM (inactive); in the assay on NCI/ADR-RES, 18.7 µM (inactive); with OVCAR-3 it was 16.3 µM (inactive); in the assay on OVCAR-5 it was 30.8 µM (inactive); in the assay on PC-3 it was 22.8 µM (inactive). Besides, the GI50 in the assay on RXF 393 was 31.7 µM (inactive); in the assay on SF-539, 24.7 µM (inactive); in the assay on SN12C, 21.8 µM (inactive); with SW-620 it was 12.2 µM (inactive); in the assay with TK-10, 30.1 µM (inactive); in the assay on UO-31, 16.4 µM (inactive).
Turning to `CCc1nnc(CC)n1N1C(=O)CCC1=O`, the GI50 with BT-549, with COLO 205, in the assay on HOP-62, with HOP-92, in the assay with HT-29 and with MCF7 was > 100 µM (inactive) in each case. The GI50 in the assay on MDA-MB-231, in the assay with NCI-H23, in the assay on NCI-H522, with NCI/ADR-RES, with OVCAR-3 and in the assay on OVCAR-5 was > 100 µM (inactive) each time. Moreover, the GI50 in the assay with PC-3, with RXF 393, in the assay with SF-539, with SN12C, with SW-620 and in the assay with TK-10 was > 100 µM (inactive) each time. Further, in the assay on UO-31, the GI50 was > 100 µM (inactive).
